Values quoted from earlier work in patent US10646430B2, “Topical compositions for stimulating adipogenesis and lipogenesis to reduce the signs of skin aging” (Kimberly-Clark Worldwide, Inc., priority 2014, dated 2020).

Test system: 3T3-L1 cells
Details: Kim et al., Nutr. Res. 32(6): 439-447

## Fucoidan
  adipogenesis (literature): inhibit adipogenesis
